# Source: patent US12410323B2, “Potent antifouling agents albofungins target multiple fouling organisms” (The Hong Kong University of Science and Technology, priority 2021, dated 2025)
# Read-outs that look alike come from different tables or passages of the source.
# Experiments:
# Staphylococcus aureus 04 [1] = assay: Biofilm inhibition assay (MTT), marine bacteria; assay type: cell-based; details: lowest concentration inhibiting 90% of biofilm formation; 24 h
# Experimental: (§1) The ability of the bacteria to form static biofilms was tested. Marine bacteria were cultured overnight in marine broth at 22° C. with 220 rpm agitation (Pseudomonas pachastrellae MCCC 1A01390, Sulfitobacter pontiacus MCCC 1A04899 and Psychrobacter nivimaris MCCC 1A 11723) and at 30° C. (Staphylococcus aureus B04, Staphylococcus sp. Z01 and Micrococcus sp. Z02) and then diluted to 10^7 CFU mL^−1 in marine broth supplemented with 1% of glucose; pathogenic bacteria was cultured overnight in LB broth with 1% glucose with 220 rpm at 37° C. Afterwards, 200 μL of the diluted solution were added to each well of a 96-well plate (Corning Inc., New York, USA) and was then incubated at 22° C. or 30° C. for 24 h. The culture medium, planktonic cells and loosely adhered bacteria were removed by dual washing with a phosphate-buffered saline (PBS) buffer, and the firmly attached bacteria were incubated with 20 μL of MTT (5 mg mL^−1) at 37° C. for 3 h. The supernatant was discarded, and formazan was dissolved in 150 μL of DMSO. Absorbance was measured using the Multiskan™ FC microplate photometer (Thermo Fisher Scientific, Waltham, USA) under 570 nm, and MRSA ATCC 43300 was used as a positive control. All the experiments were performed in triplicate.
# (§2) The antibacterial activities of albofungins were tested following specific protocols (She et al., 2020). Marine broth was used as the test medium for the marine bacteria, and the MHB broth was used as the test medium for the pathogenic bacteria. The plate was kept at 22° C. or 30° C. overnight, and the minimum inhibitory concentration (MIC) is the lowest concentration that the drug prevents the visible growth of bacteria. The bacteria which have successfully formed biofilms were further used for antibiofilm formation assays. Different concentrations of albofungin compounds were added to each well. Biofilm formation was assessed through the MTT assay as previously described. […] Data were analyzed using one-way ANOVA to detect significant differences and standard deviation (SD) was calculated using GraphPad Prism 9. All the assays were performed in triplicate.
# [2] = system: MCCC 1A11723 Psychrobacter nivimaris; assay: Biofilm inhibition assay (MTT), marine bacteria; assay type: cell-based; details: lowest concentration inhibiting 90% of biofilm formation; 24 h
# Experimental: as §1, §2
# [3] = system: MCCC 1A01390 Pseudomonas pachastrellae; assay: Biofilm inhibition assay (MTT), marine bacteria; assay type: cell-based; details: lowest concentration inhibiting 90% of biofilm formation; 24 h
# Experimental: as §1, §2
# Micrococcus sp. Z02 [4] = assay: Biofilm inhibition assay (MTT), marine bacteria; assay type: cell-based; details: lowest concentration inhibiting 90% of biofilm formation; 24 h
# Experimental: as §1, §2
# Staphylococcus sp. Z01 [5] = assay: Biofilm inhibition assay (MTT), marine bacteria; assay type: cell-based; details: lowest concentration inhibiting 90% of biofilm formation; 24 h
# Experimental: as §1, §2
# [6] = system: MCCC 1A04899 Sulfitobacter pontiacus; assay: Biofilm inhibition assay (MTT), marine bacteria; assay type: cell-based; details: lowest concentration inhibiting 90% of biofilm formation; 24 h
# Experimental: as §1, §2
# Staphylococcus aureus 04 [7] = assay: Bacterial growth inhibition (antibacterial assay, MIC); assay type: cell-based; details: marine broth, overnight
# Experimental: as §2
# [8] = system: MCCC 1A11723 Psychrobacter nivimaris; assay: as above; assay type: cell-based; details: marine broth, overnight
# Experimental: as §2
# [9] = system: MCCC 1A01390 Pseudomonas pachastrellae; assay: as above; assay type: cell-based; details: Halopseudomonas pachastrellae; marine broth, overnight
# Experimental: as §2
# Micrococcus sp. Z02 [10] = assay: as above; assay type: cell-based; details: marine broth, overnight
# Experimental: as §2
# Staphylococcus sp. Z01 [11] = assay: as above; assay type: cell-based; details: marine broth, overnight
# Experimental: as §2
# [12] = system: MCCC 1A04899 Sulfitobacter pontiacus; assay: as above; assay type: cell-based
# Experimental: as §2
# [13] = system: barnacle Amphibalanus amphitrite larvae; assay: Anti-larval settlement bioassay, barnacle; assay type: in vivo; details: for EC50: Amphibalanus amphitrite, larval settlement, 48 h at 25° C., read-out: EC50; for settlement rate compared with control group (0.1% DMSO in FSW): after 48 h of incubation
# Experimental: (§3) A. amphitrite adults were collected from Pak Sha Wan Pier, Hong Kong (22° 38′N, 114° 28′E) and after keeping in the dark for 24 h, a light source was used to stimulate the larval release. Within 1 h, the larvae were collected and cultured in 0.22 μm filtered seawater with a daily diet of Chaetoceros gracilis Schutt at 1×10^6 cells mL^−1 until their growth into cyprids, which were used for the anti-larval settlement bioassay. The bryozoan B. neritina adults were collected from a fish farm in Pak Shek Kok, Hong Kong (22° 43′N, 114° 20′E) and kept in flow-through seawater for no more than 7 days before use. The larvae were released within 30 minutes before the bioassay as described (Xu et al., 2010). The bioassay was conducted in a 24-well polystyrene tissue culture plate with 15-20 larvae in each well. 0.1% of DMSO in filtered seawater (FSW), and 0.625, 1.25, 2.5, 5, 10, 20, and 40 μg mL^−1 albofungin concentrations were tested in triplicate. In each well, 1 mL of FSW containing 15-20 larvae and 1 mL of albofungin solution of different concentrations. The plate was kept for 48 h at 25° C. (bryozoan B. neritina larvae were kept for 3 h). The wells with 0.1% of DMSO in FSW served as a negative control, and butenolide was used as a positive control. The number of attached, swimming, and dead larvae were counted under an Olympus optical microscope (Olympus Corporation, Tokyo, Japan). The settlement rate was calculated as the ratio of settled larvae to the total number of larvae in each well, and the death rate was calculated as the ratio of dead or missing larvae to the total number of larvae in each well. Half maximal effective concentration (EC50) and half lethal concentration (LC50) were determined for each compound, and the ratio of LC50/EC50 was used to evaluate the toxicity of the antifoulant. Experiments were performed in triplicate. Data were analyzed by one-way ANOVA to detect significant differences in the larval settlement, and SD was calculated by GraphPad Prism 9.
# [14] = Anti-larval settlement bioassay, barnacle; assay type: in vivo, Amphibalanus amphitrite; details: Amphibalanus amphitrite (barnacle), cyprid larvae, in vivo; larval mortality, 48 h at 25° C.
# Experimental: as §3
# MRSA ATCC 43300 = assay: Biofilm inhibition assay (MTT), pathogenic bacteria; assay type: cell-based, Staphylococcus aureus; details: lowest concentration inhibiting 90% of biofilm formation
# Experimental: as §1
# as §2, with “All the assays were performed in triplicate.” left out
# [15] = system: Acinetobacter baumannii B-65371; assay: as above; assay type: cell-based; details: lowest concentration inhibiting 90% of biofilm formation
# Experimental: as §1, §2
# [16] = system: Enterobacter cloacae NRRL-B-425; assay: as above; assay type: cell-based; details: lowest concentration inhibiting 90% of biofilm formation
# Experimental: as §1, §2
smiles,measurement,setting,value
"CO[C@@H]1CC[C@H](O)c2c1oc1c3c4c(c(O)c1c2=O)-c1c(cc2c(Cl)c(C)n(N)c(=O)c2c1O)C[C@H]4OCO3 [Chloroalbofungin (3), chloroalbofungin]",MBIC90,Staphylococcus aureus 04 [1],250 to 500 ng/mL
same,MBIC90,[2],>20 µg/mL
same,MBIC90,[3],>20 µg/mL
same,MBIC90,Micrococcus sp. Z02 [4],250 to 500 ng/mL
same,MBIC90,Staphylococcus sp. Z01 [5],100 to 200 ng/mL
same,MBIC90,[6],10 to 20 µg/mL
same,MIC,Staphylococcus aureus 04 [7],0.0125 µg/mL
same,MIC,[8],> 20 µg/mL
same,MIC,[9],> 20 µg/mL
same,MIC,Micrococcus sp. Z02 [10],0.05 µg/mL
same,MIC,Staphylococcus sp. Z01 [11],0.0016 µg/mL
same,MIC,[12],> 20 µg/mL
same,EC50,[13],35 µg/mL
same,settlement rate compared with control group (0.1% DMSO in FSW),[13],did not cause significant difference
same,LC50 at 48 h,[14],> 100 µg/mL
"CO[C@@H]1CC[C@H](O)c2c1oc1c3c4c(c(O)c1c2=O)-c1c(cc2cc(C)[nH]c(=O)c2c1O)C[C@H]4OCO3 [Chrestoxanthone A (4), chrestoxanthone A]",MBIC90,MRSA ATCC 43300,0.13 to 0.25 µg/mL
same,MBIC90,[15],1.25 to 2.5 µg/mL
same,MBIC90,[16],>10 µg/mL
same,MBIC90,Staphylococcus aureus 04 [1],62.5 to 125 ng/mL
same,MBIC90,[2],>20 µg/mL
same,MBIC90,[3],>20 µg/mL
same,MBIC90,Micrococcus sp. Z02 [4],125 to 250 ng/mL
same,MBIC90,Staphylococcus sp. Z01 [5],5 to 10 ng/mL
same,MBIC90,[6],10 to 20 µg/mL
same,MIC,Staphylococcus aureus 04 [7],0.0125 µg/mL
same,MIC,[8],> 20 µg/mL
same,MIC,[9],> 20 µg/mL
same,MIC,Micrococcus sp. Z02 [10],0.0125 µg/mL
same,MIC,Staphylococcus sp. Z01 [11],0.0016 µg/mL
same,MIC,"[12]; marine broth, overnight, read-out: MIC",20 µg/mL
same,EC50,[13],> 36.8 µg/mL
same,settlement rate compared with control group (0.1% DMSO in FSW),[13],did not cause significant difference
same,LC50 at 48 h,[14],> 100 µg/mL
